From patent US12599672B2, “KRAS proteolysis targeting chimeras” (PAQ Therapeutics Inc., priority 2023, dated 2026)

Legend:
[1] = molecular target: T1, KRAS G12D (Homo sapiens, UniProt P01116, G12D); assay: KRAS G12D HiBit assay; assay type: cell-based; conditions: AsPc-1-KRAS (G12D)-HiBit-KI cell, compound treatment for 24 hours; for DC50: absolute DC50
T1 construct: AsPc-1-KRAS (G12D)-HiBit-KI cell (Pharmaron); host or cells: AsPc-1-KRAS (G12D)-HiBit-KI cells (HiBiT knock-in at the endogenous KRAS locus)
Description: Day 1. […] Allowed cells to reach approximately 80% confluence before splitting. Rinsed cultivated cells in T-75 flasks with 5 mL PBS (Solarbio, P1020-500). […] Inactivated trypsin by adding excessive serum containing medium. Harvested the cells from flask into cell culture medium and counted the cell number.
Day 2. Test compounds were dissolved at 0.3 mM in DMSO (Solarbio, D8371) as stock solution. […] Performed 3-fold, 10-points dilution via transferring 15 μL compound into 30 μL DMSO by using TECAN liquid handler (TECAN, Freedom EVO200).
Day 3. After compound treatment for 24 hours, removed the plate from incubators and equilibrated at room temperature for 15 minutes. Prepared the HiBit reagent (Promega, N3040) by mixing 10 mL of Nano-Glo®-HiBiT Lytic Buffer with 200 μL of Nano-Glo®-HiBiT Lytic Substrate and 100 μL of LgBiT Protein. Added 20 μL of HiBit reagent into each well of the cell plate and spun the plates at room temperature at 1,000 RPM for 1 minute.
The inhibition activity was calculated using the following formula:
(§1) [formula] where HC (high control) is obtained from cells treated with 0.1% DMSO only.

[2] = molecular target: T2, KRAS G12V (Homo sapiens, UniProt P01116, G12V); assay: KRAS G12V HiBit assay; assay type: cell-based; conditions: SW620-KRAS (G12V)-HiBit-KI cells, compound treatment for 24 hours, class symbols
T2 construct: SW620-KRAS (G12V)-HiBit-KI cell (Pharmaron); host or cells: SW620-KRAS (G12V)-HiBit-KI cells (HiBiT knock-in at the endogenous KRAS locus)
Description: Day 1. […] Rinsed cultivated cells in T-75 flasks with 5 mL PBS (Solarbio, P1020-500). […] Inactivated trypsin by adding excessive serum containing medium. Harvested the cells from flask into cell culture medium and counted the cell number.
Day 2. Test compounds were dissolved at 0.3 mM in DMSO (Solarbio, D8371) as stock solution. […] Performed 3-fold, 10-points dilution via transferring 15 μL compound into 30 μL DMSO by using TECAN liquid handler (TECAN, Freedom EVO200). […] After compound treatment for 24 hours, the plate was removed from incubators and equilibrated at room temperature for 15 minutes. Prepare the HiBit reagent (Promega, N3040) by mixing 10 mL of Nano-Glo®-HiBiT Lytic Buffer with 200 μL of Nano-Glo®-HiBiT Lytic Substrate and 100 μL of LgBiT Protein. Added 20 μL of HiBit reagent into each well of the cell plate and spun the plates at room temperature at 1,000 RPM for 1 minute.
The degradation activity was calculated using the following formula:
as §1

T2 sequence (P01116 1-188 isoform P01116-2 G12V): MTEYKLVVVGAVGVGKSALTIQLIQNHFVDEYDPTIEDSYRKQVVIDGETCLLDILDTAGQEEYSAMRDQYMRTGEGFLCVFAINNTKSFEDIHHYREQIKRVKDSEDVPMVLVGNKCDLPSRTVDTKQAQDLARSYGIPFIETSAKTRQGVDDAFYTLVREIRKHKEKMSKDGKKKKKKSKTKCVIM
T1 sequence (P01116 1-188 isoform P01116-2 G12D): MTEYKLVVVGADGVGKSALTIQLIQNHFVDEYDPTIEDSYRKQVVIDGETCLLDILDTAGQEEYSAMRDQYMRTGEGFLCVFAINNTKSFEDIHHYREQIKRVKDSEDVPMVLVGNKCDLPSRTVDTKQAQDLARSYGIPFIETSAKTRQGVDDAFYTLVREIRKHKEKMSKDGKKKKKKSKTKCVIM

DC50 ([1]; class symbols) | DC50 [2] | Dmax ([1]; class symbols) | DC50 ([1]; numeric bounds given in place of class symbols) | SMILES
< 0.1 µM | > 0.1 µM | – | – | C#Cc1c(F)ccc2cc(O)cc(-c3ncc4c(N5CCC[C@@](C)(O)C5)nc(OCC5(CN6CCC(CN7CCC(c8cccc9c8n(C)c(=O)n9C8CCC(=O)NC8=O)CC7)CC6)CC5)nc4c3F)c12 (stereo partly shown) [Compound 65]
> 0.3 µM | > 0.1 µM | < 15% | – | C#Cc1c(F)ccc2cccc(-c3ncc4c(N5CCC[C@@](C)(O)C5)nc(OC[C@@]56CCCN5[C@H](COC(=O)NCCOc5ccc7c(c5)n(C)c(=O)n7C5CCC(=O)NC5=O)CC6)nc4c3F)c12 (stereo partly drawn) [Compound 106, ((3S,7aS)-7a-(((7-(8-ethynyl-7-fluoronaphthalen-1-yl)-8-fluoro-4-((R)-3-hydroxy-3-methylpiperidin-1-yl)pyrido[4,3-d]pyrimidin-2-yl)oxy)methyl)hexahydro-1H-pyrrolizin-3-yl)methyl (2-((1-(2,6-dioxopiperidin-3-yl)-3-methyl-2-oxo-2,3-dihydro-1H-benzo[d]imidazol-5-yl)oxy)ethyl) carbamate]
< 0.1 µM | < 0.01 µM | – | – | CCc1c(F)ccc2cc(O)cc(-c3ncc4c(N5CCC[C@@](C)(O)C5)nc(OC[C@@]56CCCN5[C@H](COC(=O)N5CCC(N7CC8(CCN(c9ccc%10c(c9)n(C)c(=O)n%10C9CCC(=O)NC9=O)CC8)C7)CC5)CC6)nc4c3F)c12 (stereo partly drawn) [Compound 362, ((3S,7aS)-7a-(((7-(8-ethyl-7-fluoro-3-hydroxynaphthalen-1-yl)-8-fluoro-4-((R)-3-hydroxy-3-methylpiperidin-1-yl)pyrido[4,3-d]pyrimidin-2-yl)oxy)methyl)hexahydro-1H-pyrrolizin-3-yl)methyl 4-(7-(1-(2,6-dioxopiperidin-3-yl)-3-methyl-2-oxo-2,3-dihydro-1H-benzo[d]imidazol-5-yl)-2,7-diazaspiro[3.5]nonan-2-yl)piperidine-1-carboxylate]
> 0.3 µM | > 0.1 µM | – | – | C#Cc1c(F)ccc2cccc(-c3ncc4c(N5CCC[C@@](C)(O)C5)nc(OCC5(CN6CCC(N7CCC(c8cccc9c8n(C)c(=O)n9C8CCC(=O)NC8=O)CC7)CC6)CC5)nc4c3F)c12 (stereo partly shown) [Compound 74]
> 0.3 µM | > 0.1 µM | 15 to 50% | – | CCc1c(F)ccc2cccc(-c3ncc4c(N5CCC[C@@](C)(O)C5)nc(OC[C@@]56CCCN5[C@H](COC(=O)NCCOCCOc5ccc7c(c5)n(C)c(=O)n7C5CCC(=O)NC5=O)CC6)nc4c3F)c12 (stereo partly drawn) [Compound 103, ((3S,7aS)-7a-(((7-(8-ethyl-7-fluoronaphthalen-1-yl)-8-fluoro-4-((R)-3-hydroxy-3-methylpiperidin-1-yl)pyrido[4,3-d]pyrimidin-2-yl)oxy)methyl)hexahydro-1H-pyrrolizin-3-yl)methyl (2-(2-((1-(2,6-dioxopiperidin-3-yl)-3-methyl-2-oxo-2,3-dihydro-1H-benzo[d]imidazol-5-yl)oxy)ethoxy)ethyl) carbamate]
< 0.1 µM | < 0.01 µM | – | – | C#Cc1cccc2cc(O)cc(-c3ncc4c(N5CCC[C@@](C)(O)C5)nc(OC[C@@]56CCCN5[C@H](COC(=O)N5CCC(CN7CCC(c8ccc9c(c8)n(C)c(=O)n9C8CCC(=O)NC8=O)CC7)CC5)CC6)nc4c3F)c12 (stereo partly shown) [Compound 144]
> 0.3 µM | > 0.1 µM | – | – | C#Cc1c(F)ccc2cccc(-c3ncc4c(N5CCC[C@@](C)(O)C5)nc(OCC5(CN6CCC7(CC6)CC(N6CCN(c8cccc9c8n(C)c(=O)n9C8CCC(=O)NC8=O)CC6)C7)CC5)nc4c3F)c12 (stereo partly shown) [Compound 70]
< 0.1 µM | > 0.1 µM | > 50% | – | C#Cc1c(F)ccc2cccc(-c3ncc4c(N5CCC[C@@](C)(O)C5)nc(OC[C@@]56CCCN5[C@H](COC(=O)N5CCC(CN7CCC(c8ccc9c(c8)n(C)c(=O)n9C8CCC(=O)NC8=O)CC7)CC5)CC6)nc4c3F)c12 (stereo partly drawn) [Compound 3, [(3S,8S)-8-[[7-(8-Ethynyl-7-fluoro-1-naphthyl)-8-fluoro-4-[(3R)-3-hydroxy-3-methyl-1-piperidyl]pyrido[4,3-d]pyrimidin-2-yl]oxymethyl]-1,2,3,5,6,7-hexahydropyrrolizin-3-yl]methyl 4-[[4-[1-(2,6-dioxo-3-piperidyl)-3-methyl-2-oxo-benzimidazol-5-yl]-1-piperidyl]methyl]piperidine-1-carboxylate]
< 0.1 µM | < 0.01 µM | – | – | CCc1c(F)ccc2cc(O)cc(-c3ncc4c(N5CCC[C@@](C)(O)C5)nc(OC[C@@]56CCCN5[C@H](CN(C)C(=O)c5ccc(CN7CCC(c8ccc9c(c8)n(C)c(=O)n9C8CCC(=O)NC8=O)CC7)cc5)CC6)nc4c3F)c12 (stereo partly drawn) [Compound 503, 4-((4-(1-(2,6-dioxopiperidin-3-yl)-3-methyl-2-oxo-2,3-dihydro-1H-benzo[d]imidazol-5-yl)piperidin-1-yl)methyl)-N-(((3S,7aS)-7a-(((7-(8-ethyl-7-fluoro-3-hydroxynaphthalen-1-yl)-8-fluoro-4-((R)-3-hydroxy-3-methylpiperidin-1-yl)pyrido[4,3-d]pyrimidin-2-yl)oxy)methyl)hexahydro-1H-pyrrolizin-3-yl)methyl)-N-methylbenzamide]
< 0.1 µM | < 0.01 µM | – | – | Cn1c(=O)n(C2CCC(=O)NC2=O)c2ccc(C3CCN(C4CC5(CCN(C(=O)OC[C@@H]6CC[C@]7(COc8nc(N9CCC[C@@](C)(O)C9)c9cnc(-c%10cc(O)cc%11cccc(Cl)c%10%11)c(F)c9n8)CCCN67)CC5)C4)CC3)cc21 (stereo partly drawn) [Compound 338, ((3S,7aS)-7a-(((7-(8-chloro-3-hydroxynaphthalen-1-yl)-8-fluoro-4-((R)-3-hydroxy-3-methylpiperidin-1-yl)pyrido[4,3-d]pyrimidin-2-yl)oxy)methyl)hexahydro-1H-pyrrolizin-3-yl)methyl 2-(4-(1-(2,6-dioxopiperidin-3-yl)-3-methyl-2-oxo-2,3-dihydro-1H-benzo[d]imidazol-5-yl)piperidin-1-yl)-7-azaspiro[3.5]nonane-7-carboxylate]
< 0.1 µM | < 0.01 µM | – | – | C#Cc1c(F)ccc2cc(O)cc(-c3ncc4c(N5CCC[C@@](C)(O)C5)nc(OCC5(CN6CCC(CN7CCN(c8cccc9c8n(C)c(=O)n9C8CCC(=O)NC8=O)CC7)CC6)CC5)nc4c3F)c12 (stereo partly shown) [Compound 72]
– | 0.01 to 0.1 µM | – | > 0.1 µM | CCc1c(F)ccc2cc(O)cc(-c3ncc4c(N5CCC[C@@](C)(O)C5)nc(OC[C@]56CCCN5[C@H](COC(=O)N5CCC(Oc7cccc8c7n(C)c(=O)n8C7CCC(=O)NC7=O)CC5)CC6)nc4c3F)c12 (stereo partly drawn) [Compound 306, ((3S,7aR)-7a-(((7-(8-ethyl-7-fluoro-3-hydroxynaphthalen-1-yl)-8-fluoro-4-((R)-3-hydroxy-3-methylpiperidin-1-yl)pyrido[4,3-d]pyrimidin-2-yl)oxy)methyl)hexahydro-1H-pyrrolizin-3-yl)methyl 4-((1-(2,6-dioxopiperidin-3-yl)-3-methyl-2-oxo-2,3-dihydro-1H-benzo[d]imidazol-4-yl)oxy)piperidine-1-carboxylate]
< 0.1 µM | > 0.1 µM | – | – | C#Cc1c(F)ccc2cc(O)cc(-c3ccc4c(N5CCC[C@@](C)(O)C5)nc(OCC5(CN6CCC(CN7CCN(c8ccc9c(c8)n(C)c(=O)n9C8CCC(=O)NC8=O)CC7)CC6)CC5)nc4c3F)c12 (stereo partly shown) [Compound 12]
< 0.1 µM | > 0.1 µM | – | – | CCc1c(F)ccc2cc(O)cc(-c3ncc4c(N5CCC[C@@](C)(O)C5)cc(OC[C@@]56CCCN5[C@H](COC(=O)N5CCC(CN7CCC(c8ccc9c(c8)n(C)c(=O)n9C8CCC(=O)NC8=O)CC7)CC5)CC6)nc4c3F)c12 (stereo partly drawn) [Compound 492, ((3S,7aS)-7a-(((7-(8-ethyl-7-fluoro-3-hydroxynaphthalen-1-yl)-8-fluoro-4-((R)-3-hydroxy-3-methylpiperidin-1-yl)-1,6-naphthyridin-2-yl)oxy)methyl)hexahydro-1H-pyrrolizin-3-yl)methyl 4-((4-(1-(2,6-dioxopiperidin-3-yl)-3-methyl-2-oxo-2,3-dihydro-1H-benzo[d]imidazol-5-yl)piperidin-1-yl)methyl)piperidine-1-carboxylate]
< 0.1 µM | > 0.1 µM | > 50% | – | C#Cc1c(F)ccc2cc(O)cc(-c3ncc4c(N5CCCCCC5)nc(OCC5(CN6CCN(CC7CCN(c8ccc9c(c8)n(C)c(=O)n9C8CCC(=O)NC8=O)CC7)CC6)CC5)nc4c3F)c12 (stereo not shown) [Compound 16]
